This note sets out measurements from US20030027745A1, “Diagnostic and prognostic method for evaluating ocular inflammation and oxidative stress and the treatment of the same” (priority 2001, published 2003).

Structures are written as SMILES.

Assay [1] concerns reduced blood glutathione (GSH). Description: Blood glutathione (GSH) levels in an ARMD patient before and after NAC treatment. The assay is classed as in vivo. As to conditions: ARMD patient taking NAC compared to the same patient before taking NAC, FIG. 1. From the text:
FIG. 1 is a chart showing the decreased reduced blood glutathione (GSH) levels in an Age-Related Macular Degeneration patient, prior to and following treatment of the patient with N-acetylcysteine (NAC).
It is known that GSH levels decrease in cells that are exposed to oxidative stress and inflammation. Decreases in GSH lead to even further increased oxidative stresses. […] Since it shown that patients with ARMD, as opposed to the control subjects, have decreased levels of GSH and that the levels of GSH increased following NAC treatment, alterations in GSH, GSSG and other factors when analyzed alone or in combination, can be used to help identify ARMD and other patients who have increased ocular oxidative stress and/or inflammation. For example, these responses may occur in the eye of ARMD or other patients as the disease progresses from its dry to wet forms or from less serious to more serious wet forms. Consequently, measurements of these factors could provide a way of diagnosing and following the progression of ARMD or other conditions in patients, especially when the measurements are made sequentially and compared repeatedly in the same individual.
A second aspect of the invention is that the effectiveness of treatments that alter oxidative stress can be assessed by the measurement, especially sequential measurement, of blood factors. […]

A further assay deals with drusen. The experiment in a line: Number of drusen in an ARMD patient following NAC treatment. In kind it is in vivo. As to conditions: FIG. 2.

In the case of `CC(=O)N[C@@H](CS)C(=O)O` [NAC, N-acetylcysteine], in assay [1], the GSH levels result was “increased”. Further, the “drusen (number of drusens, a retinal abnormality)” value with drusen is on record as “decreased”.
